Measurements published in PMC8484451, “Characterization of fluorescent probe substrates to develop an efficient high-throughput assay for neonatal hepatic CYP3A7 inhibition screening” (Scientific Reports, 2021).

How the values were obtained:
[1] = target: T1, CYP3A7 (Homo sapiens, UniProt P24462); assay: Michaelis-Menten kinetics (fluorescence); assay type: biochemical; conditions: read-out: DBOMF
T1 construct: recombinant human CYP3A7 Supersomes (Sf9 insect cell microsomes); with human NADPH-cytochrome P450 reductase and human cytochrome b5 (co-expressed)

[2] = target: T1, CYP3A7; assay: fluorescent DBF O-debenzylation inhibition assay with recombinant CYP3A7; assay type: biochemical
[3] = target: T1, CYP3A7; assay: fluorescent DBF inhibition assay at […]; assay type: biochemical; conditions: read-out: % inhibition at 20 μM
[4] = substrate: c1ccc(COc2ccc3cccnc3c2)cc1; assay: Michaelis-Menten kinetics (fluorescence); assay type: biochemical, Homo sapiens; conditions: NADPH
[5] = substrate: O=C(OCc1ccccc1)c1ccccc1-c1c2ccc(=O)cc-2oc2cc(OCc3ccccc3)ccc12; assay: Michaelis-Menten kinetics (fluorescence); metabolites by LC-MS/MS; assay type: biochemical, Homo sapiens; conditions: NADPH likely binds in the CYP3A7 active site mirroring native substrates

Molecule: O=C(OCOCc1ccccc1)c1ccccc1-c1c2ccc(=O)cc-2oc2cc(OCOCc3ccccc3)ccc12 [DBOMF, dibenzyloxymethylfluorescein]
- Km [1]: 1.62 µM

Molecule: C[C@]12CC[C@H](OS(=O)(=O)O)CC1=CC[C@@H]1[C@@H]2CC[C@]2(C)C(=O)CC[C@@H]12 [DHEA-S]
- IC50 [2]: 5.31 µM

Molecule: CC(C)CN(C[C@@H](O)[C@H](Cc1ccccc1)NC(=O)O[C@H]1CO[C@H]2OCC[C@H]21)S(=O)(=O)c1ccc(N)cc1 [Darunavir]
- inhibition at 20 µM [3]: > 75%

Molecule: Cc1c(O)cccc1C(=O)N[C@@H](CSc1ccccc1)[C@H](O)CN1C[C@H]2CCCC[C@H]2C[C@H]1C(=O)NC(C)(C)C [Nelfinavir]
- inhibition at 20 µM [3]: > 75%

B1: CYP3A7 (Homo sapiens) (protein)
chain: MDLIPNLAVETWLLLAVSLILLYLYGTRTHGLFKKLGIPGPTPLPFLGNALSFRKGYWTFDMECYKKYRKVWGIYDCQQPMLAITDPDMIKTVLVKECYSVFTNRRPFGPVGFMKNAISIAEDEEWKRIRSLLSPTFTSGKLKEMVPIIAQYGDVLVRNLRREAETGKPVTLKHVFGAYSMDVITSTSFGVSIDSLNNPQDPFVENTKKLLRFNPLDPFVLSIKVFPFLTPILEALNITVFPRKVISFLTKSVKQIKEGRLKETQKHRVDFLQLMIDSQNSKDSETHKALSDLELMAQSIIFIFAGYETTSSVLSFIIYELATHPDVQQKVQKEIDTVLPNKAPPTYDTVLQLEYLDMVVNETLRLFPVAMRLERVCKKDVEINGMFIPKGVVVMIPSYVLHHDPKYWTEPEKFLPERFSKKNKDNIDPYIYTPFGSGPRNCIGMRFALVNMKLALVRVLQNFSFKPCKETQIPLKLRFGGLLLTEKPIVLKAESRDETVSGA
notes: recombinant human CYP3A7 Supersomes (Sf9 insect cell microsomes); with human NADPH-cytochrome P450 reductase and human cytochrome b5 (co-expressed)
- Km [4]: 0.913 µM
- kcat [4]: 0.0217 s⁻¹
- Km [5]: 0.525 µM
- kcat [5]: 0.00247 s⁻¹
